Measurements published in patent publication EP0073711A1, “Salts of 2-oxopentane-1,5-dicarboxylic acid, their preparation and pharmaceutical preparations containing these salts” (S.A. D[…] LEBAS (Société Anonyme), priority 1981, dated 1983).

How the values were obtained:
[1] = system: système nerveux central de la souris; assay: Antagonism of the muscle-relaxant action of chlorpromazine (CPZ); assay type: in vivo
Text: (§1) Activité du sel acide de calcium de l'acide 2-oxo-1,5- pentane dioîque sur le système nerveux central de la souris.
2. Antagonisme de l'action myorelaxante de la Chlorpromazine (CPZ)
La chlorpromazine induit une myorelaxation chez la souris. On constate une réduction de 37,5% pour une dose de 1g par kg et une réduction de 62,5% pour une dose de 2g par kg.

[2] = system: système nerveux central de la souris; assay: Motor activity; assay type: in vivo
Text: as §1
Ce test a montré que l'adminitration à des souris du sel conforme à l'invention, provoque une augmentation de leur activité motrice.

[3] = system: système nerveux central de la souris; assay: Catalepsy (prochlorpémazine-induced catatonia); assay type: in vivo; conditions: catalepsy test
Text: as §1
Ce test a montré que le sel conforme à l'invention s'oppose à l'activité catatonique de la prochlorpémazine.

[4] = system: système nerveux central de la souris; assay: Reduction of barbiturate narcosis; assay type: in vivo
Text: as §1
4. Réduction de la narcose barbiturique
Les résultats de ce test se sont avérés positifs, chez la souris.

[5] = system: système nerveux central de la souris; assay: Reduction of reserpine hypothermia; assay type: in vivo; conditions: doses between 0,5 and 1g par kg per os
Text: as §1
5. Réduction de l'hypothermie réserpinique

[6] = system: rats; assay: 30-day daily treatment toxicity; assay type: in vivo; conditions: daily treatment 30 days, doses up to 1g par kg et par jour
Text: Un groupe de rats a été soumis à un traitement quotidien par le sel acide de calcium de l'acide 2-oxo-1,5- pentane dioique pendant une durée de 30 jours.

[7] = system: système nerveux central de la souris; assay: Rotarod test (rotating cylinder) after chlorpromazine; assay type: in vivo; conditions: from the dose of 0,5g par kg
Text: as §1
3. Test du "rotarod" (cylindre tournant)
Dans ce test, la souris tourne sur un cylindre animé d'un mouvement rotatif, perd l'équilibre et tombe après administration de chlorpromazine (CPZ).

[8] = system: système nerveux central de la souris; assay: Reduction of reserpine ptosis; assay type: in vivo; conditions: souris, 0,5g par kg à 1g par kg per os, 1 hour after administration
Text: as §1
1. Réduction du ptosis réserpinique

[9] = system: système nerveux central de la souris; assay: Hole-board test; assay type: in vivo
Text: as §1
6. Test de la planche à trous
Sur une planche percée de trous, la souris, parcourant la surface, explore les divers trous rencontrés.

[10] = system: patients; assay: Clinical study: memory disorders, neurotic (anxiophobic) and psychasthenic states, versus placebo; assay type: in vivo, homme; conditions: sixty patients, 4g daily in two doses versus placebo
Text: 2. Correction des troubles de la mémoire, des états névrotiques (anxiophobiques), et des états psychasténiques

[11] = Pharmacokinetic study with C14-labelled salt; assay type: in vivo; conditions: rats, C14-labelled molecule
Text: Dans cette étude, on a administré à des rats le sel conforme à l'invention dont la molécule a été marquée au C^14 radioactif.

[12] = system: patient; assay: Clinical test: corrective effects on hypoxia (chamber, 12,5% O2); assay type: in vivo, homme; conditions: acute dose 12g per os, hypoxia at 12,5% O2
Text: 1. Effets correctifs du sel acide de calcium de l'acide 2-oxo 1,5-pentane dioïgue sur l'hypoxie
Le test est réalisé sur le patient après le passage de celui-ci en caisson sous une hypoxie à 12,5% d'O2.

[13] = Solubility in water at 20°C; assay type: physicochemical; conditions: lithium salt
[14] = Tests on the acid lithium salt (pharmacological and therapeutic properties); conditions: compared with the calcium salt

| Substance | réduction (myorelaxation induite par la chlorpromazine) ([1]; dose 1g par kg) | réduction (myorelaxation induite par la chlorpromazine) ([1]; dose 2g par kg) | activité motrice [2] | activité catatonique de la prochlorpémazine [3] | réduction de la narcose barbiturique [4] | réduction de l'hypothermie réserpinique [5] | anomalie dans les constantes biologiques, hématologiques et les examens histologiques de différents viscères [6] | antagonisme du CPZ (rotarod) [7] | ptosis réserpinique [8] | exploration (planche à trous) sous méprobamate ([9]; after a single treatment, méprobamate-induced decrease of exploration) | activité exploratrice (planche à trous) ([9]; after three days of pretreatment, versus control animals) | efficacité à l'égard des troubles de la mémoire, états névrotiques (anxiophobiques) et états psychasténiques [10] | passage à travers la barrière hématoencéphalique [11] | principal métabolite d'élimination [11] | conversion au niveau cérébral ([11]; in the brain) | effet correctif sur l'hypoxie [12] | solubilité dans l'eau à 20°C [13] | propriétés pharmacologiques et thérapeutiques [14] |
| --- | --- | --- | --- | --- | --- | --- | --- | --- | --- | --- | --- | --- | --- | --- | --- | --- | --- | --- |
| sel de calcium acide de l'acide 2-oxo-1,5- pentane dioïque | 37,5% | 62,5% | augmentation | s'oppose | positifs | résultats positifs | Aucune anomalie | antagonisme du CPZ | réduit de façon significative | inhibition de la diminution d'exploration | augmentation notable | excellente efficacité | passage de la molécule à travers la barrière hématoencéphalique | acide glutamique | conversion de celle-ci en acide gamma-aminobutyrique (GABA) | activateur efficace capable de contrebalancer l'effet d'une hypoxie | – | – |
| sel acide de lithium de l'acide 2-oxo-1,5- pentane dioïque [sel de lithium acide] | – | – | – | – | – | – | – | – | – | – | – | – | – | – | – | – | 5,5 % en poids | comparables à celles du sel de calcium |
